Legend:
blackgrass = assay: Test B pre/postemergence blackgrass; assay type: in vivo, Alopecurus myosuroides
Summary of the method: (§1)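 Herbicidal effect was estimated by eye on a ten-point control scale after plants spent twelve to sixteen days in a greenhouse following soil or foliar treatment. Foliar sprays targeted plants at one to four leaves; all doses were formulated in a non-phytotoxic solvent with surfactant.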

wild oat = assay: Test B pre/postemergence wild oat; assay type: in vivo, Avena fatua
Summary of the method: as §1

rice = assay: Test B flood test rice; assay type: in vivo, Oryza sativa; conditions: for Plant response rating, Rice (0 to 10 scale, 0 is no effect, 10 is complete control): Rate 62 g/ha; for Plant response rating, Rice (0 to 10 scale, 0 is no effect, 10 is complete control) / Rice plant response rating (0 to 10 scale, 0 is no effect, 10 is complete control): visual evaluation after twelve to sixteen days; for Rice plant response rating (0 to 10 scale, 0 is no effect, 10 is complete control): Rate 125 g/ha, under heading Pre-emergence
Summary of the method: (§2)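 Plants were grown to the 2-leaf stage before treatment with test chemical, then held in a greenhouse for twelve to sixteen days. Injury was visually rated against untreated controls on a 0–10 scale, where 0 is no effect and 10 is complete control.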

smallflower flatsedge = assay: Test B flood test smallflower flatsedge; assay type: in vivo, Cyperus difformis; conditions: for Plant response rating, S. Flatsedge (0 to 10 scale, 0 is no effect, 10 is complete control): Rate 62 g/ha; for Plant response rating, S. Flatsedge (0 to 10 scale, 0 is no effect, 10 is complete control) / S. Flatsedge plant response rating (0 to 10 scale, 0 is no effect, 10 is complete control): visual evaluation after twelve to sixteen days; for S. Flatsedge plant response rating (0 to 10 scale, 0 is no effect, 10 is complete control): Rate 125 g/ha, under heading Pre-emergence
Summary of the method: as §2

bamyardgrass = assay: Test B flood test barnyardgrass; assay type: in vivo, Echinochloa crus-galli; conditions: for Plant response rating, Barnyardgrass (0 to 10 scale, 0 is no effect, 10 is complete control): Rate 62 g/ha; for Plant response rating, Barnyardgrass (0 to 10 scale, 0 is no effect, 10 is complete control) / Barnyardgrass plant response rating (0 to 10 scale, 0 is no effect, 10 is complete control): visual evaluation after twelve to sixteen days; for Barnyardgrass plant response rating (0 to 10 scale, 0 is no effect, 10 is complete control): Rate 125 g/ha, under heading Pre-emergence
Summary of the method: as §2

[1] = Postemergence, Rate 250 g/ha, scale 0 to 10
[2] = Postemergence, Rate 500 g/ha, scale of 0 to 10 where 0 is no effect and 10 is complete control
[3] = Preemergence, Rate 62 g/ha, scale of 0 to 10 where 0 is no effect and 10 is complete control
[4] = Preemergence, Rate 125 g/ha, scale of 0 to 10 where 0 is no effect and 10 is complete control
[5] = Preemergence, Rate 250 g/ha, scale 0 to 10, 0 is no effect, 10 is complete control
[6] = Preemergence, Rate 500 g/ha, scale 0 to 10, 0 is no effect, 10 is complete control
[7] = Rate 62 g/ha, Postemergence, scale 0 to 10 (0 no effect, 10 complete control)
[8] = Rate 125 g/ha, Postemergence, scale 0 to 10, 0 is no effect, 10 is complete control
[9] = flood test species, Pre-emergence
[10] = Rate 250 g/ha, Pre-emergence (flood test species), scale 0 to 10, 0 is no effect, 10 is complete control
[11] = Rate 500 g/ha, Pre-emergence, flood test species, scale 0 to 10 (0 no effect, 10 complete control)
[12] = Postemergence, Rate 62 g/ha, scale of 0 to 10, 0 is no effect, 10 is complete control
[13] = Postemergence, Rate 125 g/ha, scale 0 to 10, 0 is no effect, 10 is complete control
[14] = Preemergence, Rate 62 g/ha, scale 0 to 10 (0 no effect, 10 complete control)
[15] = Preemergence, Rate 125 g/ha, scale 0 to 10, 0 is no effect, 10 is complete control
[16] = Preemergence, Rate 500 g/ha, scale of 0 to 10 where 0 is no effect and 10 is complete control
[17] = Rate 250 g/ha, Postemergence, scale of 0 to 10 where 0 is no effect and 10 is complete control
[18] = Rate 500 g/ha, Pre-emergence section of Table B, 0 to 10 scale (0 no effect, 10 complete control)
[19] = Postemergence, Rate 125 g/ha, scale of 0 to 10 where 0 is no effect and 10 is complete control

Row | Structure (SMILES) | Blackgrass plant response rating (blackgrass; [1]) | Blackgrass plant response rating (blackgrass; [2]) | Plant response rating, Blackgrass (blackgrass; [3]) | Plant response rating, Blackgrass (blackgrass; [4]) | Blackgrass plant response rating (blackgrass; [5]) | Blackgrass plant response rating (blackgrass; [6]) | Blackgrass plant response rating (blackgrass; [7]) | Wild oats plant response rating (wild oat; [1]) | Plant response rating, Wild oats (wild oat; [3]) | Plant response rating, Wild oats (wild oat; [4]) | Wild oats plant response rating (wild oat; [5]) | Plant response rating, Rice (0 to 10 scale, 0 is no effect, 10 is complete control) (rice; [9]) | Rice plant response rating (0 to 10 scale, 0 is no effect, 10 is complete control) (rice; flood test species) | Rice plant response rating (rice; [10]) | Plant response rating, S. Flatsedge (0 to 10 scale, 0 is no effect, 10 is complete control) (smallflower flatsedge; [9]) | S. Flatsedge plant response rating (0 to 10 scale, 0 is no effect, 10 is complete control) (smallflower flatsedge; flood test species) | S. Flatsedge plant response rating (smallflower flatsedge; [10]) | Plant response rating, Barnyardgrass (0 to 10 scale, 0 is no effect, 10 is complete control) (bamyardgrass; [9]) | Barnyardgrass plant response rating (0 to 10 scale, 0 is no effect, 10 is complete control) (bamyardgrass; flood test species) | Barnyardgrass plant response rating (bamyardgrass; [10]) | also measured
1 | CC(C)N(C(=O)n1oc(=O)n(CC2=NOCC2)c1=O)c1ccc(F)cc1 [Compound 466] | 8 | 9 | 2 | 5 | 7 | 8 | 8 | 0 | 0 | 0 | 3 | 0 | 0 | 0 | 0 | 0 | 0 | 0 | 0 | 0 | Wild oats plant response rating (wild oat; [6]): 7; Wild oats plant response rating (wild oat; [7]): 0; Wild oats plant response rating (wild oat; [8]): 0; Rice plant response rating (rice; [11]): 0; S. Flatsedge plant response rating (smallflower flatsedge; [11]): 0; Barnyardgrass plant response rating (bamyardgrass; [11]): 0
2 | CC(C)N(C(=O)n1oc(=O)n(CCCl)c1=O)c1ccccc1 [Compound 469] | 9 | 9 | 6 | 8 | 9 | 10 | 7 | 3 | 7 | 7 | 10 | 0 | 0 | 0 | 0 | 0 | 0 | 0 | 0 | 0 | Blackgrass plant response rating (blackgrass; [8]): 7; Wild oats plant response rating (wild oat; [6]): 10; Wild oats plant response rating (wild oat; [7]): 0; Rice plant response rating (rice; [11]): 0; S. Flatsedge plant response rating (smallflower flatsedge; [11]): 0; Barnyardgrass plant response rating (bamyardgrass; [11]): 0
3 | CC(C)N(C(=O)n1oc(=O)n(C(C)C(=O)N(C)C)c1=O)c1ccccc1 (stereo not drawn) [Compound 479] | 4 | 7 | 2 | 6 | 8 | 9 | 0 | 0 | 0 | 4 | 5 | 0 | 0 | 0 | 0 | 0 | 0 | 0 | 0 | 0 | Blackgrass plant response rating (blackgrass; [8]): 0; Wild oats plant response rating (wild oat; [6]): 7; Wild oats plant response rating (wild oat; [7]): 0; Wild oats plant response rating (wild oat; [8]): 0; Rice plant response rating (rice; [11]): 0; S. Flatsedge plant response rating (smallflower flatsedge; [11]): 0; Barnyardgrass plant response rating (bamyardgrass; [11]): 0
4 | CC(C)N(C(=O)n1oc(=O)n(CCC2OCCCO2)c1=O)c1ccccc1 [Compound 561] |  |  |  |  |  |  |  |  |  |  |  | 0 | 0 | 0 | 0 | 0 | 0 | 0 | 0 | 0 | Blackgrass plant response rating (blackgrass; [12]): 2; Blackgrass plant response rating (blackgrass; [13]): 5; Plant response rating, Blackgrass (blackgrass; [2]): 6; Blackgrass plant response rating (blackgrass; [14]): 5; Blackgrass plant response rating (blackgrass; [15]): 7; Blackgrass plant response rating (0 to 10 scale) (blackgrass; Preemergence, Rate 250 g/ha): 9; Blackgrass plant response rating (blackgrass; [16]): 9; Plant response rating, Blackgrass (blackgrass; [17]): 6; Wild oats plant response rating (wild oat; [12]): 0; Plant response rating, Wild oats (wild oat; [2]): 2; Wild oats plant response rating (wild oat; [14]): 0; Wild oats plant response rating (wild oat; [15]): 2; Wild oats plant response rating (0 to 10 scale) (wild oat; Preemergence, Rate 250 g/ha): 5; Wild oats plant response rating (wild oat; [16]): 9; Plant response rating, Wild oats (wild oat; [17]): 2; Rice plant response rating (rice; [18]): 0; S. Flatsedge plant response rating (smallflower flatsedge; [18]): 0; Barnyardgrass plant response rating (bamyardgrass; [18]): 0
5 | CC(C)N(C(=O)n1oc(=O)n(C[Si](C)(C)C)c1=O)c1ccccc1 [Compound 577] |  |  |  |  |  |  |  |  |  |  |  | 0 | 0 | 0 | 0 | 0 | 0 | 0 | 0 | 0 | Blackgrass plant response rating (blackgrass; [12]): 0; Blackgrass plant response rating (blackgrass; [13]): 0; Plant response rating, Blackgrass (blackgrass; [2]): 0; Blackgrass plant response rating (blackgrass; [14]): 0; Blackgrass plant response rating (blackgrass; [15]): 0; Blackgrass plant response rating (0 to 10 scale) (blackgrass; Preemergence, Rate 250 g/ha): 3; Blackgrass plant response rating (blackgrass; [16]): 6; Plant response rating, Blackgrass (blackgrass; [17]): 0; Plant response rating, Wild oats (wild oat; [2]): 0; Wild oats plant response rating (wild oat; [14]): 0; Wild oats plant response rating (wild oat; [15]): 0; Wild oats plant response rating (0 to 10 scale) (wild oat; Preemergence, Rate 250 g/ha): 0; Wild oats plant response rating (wild oat; [16]): 0; Plant response rating, Wild oats (wild oat; [17]): 0; Rice plant response rating (rice; [18]): 0; S. Flatsedge plant response rating (smallflower flatsedge; [18]): 0; Barnyardgrass plant response rating (bamyardgrass; [18]): 0
6 | CC(C)N(C(=O)n1oc(=O)n(CC2CCC2)c1=O)c1ccccc1 [Compound 580] |  |  |  |  |  |  |  |  |  |  |  | 0 | 0 | 0 | 0 | 0 | 0 | 0 | 0 | 0 | Blackgrass plant response rating (blackgrass; [12]): 2; Plant response rating, Blackgrass (blackgrass; [19]): 6; Plant response rating, Blackgrass (blackgrass; [2]): 7; Blackgrass plant response rating (blackgrass; [14]): 0; Blackgrass plant response rating (blackgrass; [4]): 3; Blackgrass plant response rating (0 to 10 scale) (blackgrass; Preemergence, Rate 250 g/ha): 7; Blackgrass plant response rating (blackgrass; [16]): 7; Plant response rating, Blackgrass (blackgrass; [17]): 7; Plant response rating, Wild oats (wild oat; [19]): 0; Plant response rating, Wild oats (wild oat; [2]): 7; Wild oats plant response rating (wild oat; [14]): 0; Wild oats plant response rating (wild oat; [4]): 0; Wild oats plant response rating (0 to 10 scale) (wild oat; Preemergence, Rate 250 g/ha): 2; Wild oats plant response rating (wild oat; [16]): 5; Plant response rating, Wild oats (wild oat; [17]): 3; Rice plant response rating (rice; [18]): 0; S. Flatsedge plant response rating (smallflower flatsedge; [18]): 0; Barnyardgrass plant response rating (bamyardgrass; [18]): 0

— patent publication US6737383B1, “Herbicidal oxadiazolidines” (priority 1999, dated 2004)
